We go through 14 molecules from PubChem BioAssay (NCI).

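How tested: cells in 96-well plates exposed to compound for 48 hours at five concentrations. At the TGI there is no net growth.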

One may read the TGI as the concentration giving total growth inhibition.

Common to all, as to assay: DTP human tumour cell line panel, 48 h
Experiment [1] relates to K-562 leukemia.
Experiment [2] relates to LOX IMVI melanoma.
Experiment [3] relates to SNB-19 CNS.
The subject of experiment [4] is 786-0 renal.
The test system of experiment [5] is RPMI-8226 leukemia.
Experiment [6] relates to DU-145 prostate.
The subject of experiment [7] is U251 CNS.
Experiment [8] concerns IGROV1 ovarian.
The test system of experiment [9] is TK-10 renal.
The subject of experiment [10] is RXF 393 renal.

Take `O=c1oc2ccccc2c(O)c1Cc1cccc(Cc2c(O)c3ccccc3oc2=O)c1`: the TGI in [1], in [2], in [3], in experiment [4], in experiment [5] and in experiment [6] was above 100 µM throughout. The TGI in experiment [7], in [8], in experiment [9] and in experiment [10] was above 100 µM in each case.

For the molecule `C=C1C(=O)O[C@H]2C/C(C=O)=C\[C@H]3O[C@H]3/C(COC(=O)C(C)C)=C/CC12` (stereo partly drawn), the TGI in experiment [1] amounted to 10.4 µM; in experiment [2] it was 11.8 µM; in [3] it was 35.4 µM; in [4], 10.7 µM; in experiment [5], 7.61 µM; in experiment [6], 25.2 µM. Also, the TGI in experiment [7] came to 19.6 µM; in experiment [8], 18.5 µM; in experiment [9], 25.7 µM; in experiment [10], 14 µM.

Consider `Cc1cc(C)c2c(c1)CC1(Cc3c(C)cc(C)cc3C1=O)C2=O` (stereo not drawn), for which the TGI in experiment [1], in experiment [2], in experiment [3], in experiment [4], in experiment [5] and in experiment [6] was above 100 µM in each case. The TGI in experiment [7], in experiment [8], in experiment [9] and in experiment [10] was above 100 µM in each case.

In the case of `Cc1nn(-c2ccccn2)c2c1C(SC#N)=C(C=O)CC2`, the TGI in experiment [1] worked out at 39 µM; in experiment [2] it was 29.1 µM; in experiment [3] it was 47.8 µM; in experiment [4] it was 25.1 µM; in [5] it was 63 µM; in [6] it was 28.2 µM. For the same molecule, the TGI came to 28.8 µM in experiment [7], 23.7 µM in experiment [8], 6.03 µM in experiment [9] and 17.6 µM in [10].

On to `COC(=O)C1=C(C)NC2(C)OC(C)(O)C(C(C)=O)C12C(C)=O` (stereo not drawn), for which the TGI in experiment [1], in experiment [2], in experiment [3], in experiment [4], in [5] and in experiment [6] was above 100 µM in each case. For the same molecule, the TGI in [7], in experiment [8], in experiment [9] and in experiment [10] was above 100 µM throughout.

As to `O=C(Nc1nc(C23CC4CC(CC(C4)C2)C3)cs1)c1cc2cc([N+](=O)[O-])ccc2oc1=O`, the TGI in experiment [1] is above 100 µM; in experiment [2] it was above 100 µM; in [3] it was above 100 µM; in [4], 45.2 µM; in [5], above 100 µM; in [6] it was above 100 µM. Besides, the TGI is above 100 µM in experiment [7], above 100 µM in experiment [8], above 100 µM in [9] and 74.8 µM in experiment [10].

For the molecule `O=S(=O)(O)c1ccc(Nc2ccnc3cc(Cl)ccc23)cc1`, the TGI in experiment [1], in [2], in experiment [3], in [4], in [5] and in experiment [6] was above 100 µM throughout. Further, the TGI in experiment [7], in [8], in experiment [9] and in experiment [10] was above 100 µM in each case.

Take `COc1ccc(C2NC(=O)Nc3c2c(=O)oc2c3ccc3ccccc32)cc1` (stereo not drawn): the TGI in experiment [1], in [2], in experiment [3], in [4], in [5] and in experiment [6] was above 100 µM throughout. The TGI in experiment [7], in [8], in [9] and in experiment [10] was above 100 µM throughout.

Take `CCCCCCCCC[n+]1cccc(C2C(C(=O)OCC)=C(C)NC(C)=C2C(=O)OCC)c1`: the TGI amounted to 43.7 µM in [1]; 9.34 µM in experiment [2]; 11.2 µM in [3]; 26.9 µM in [4]; 5.28 µM in [5]; 25.9 µM in [6]. Besides, the TGI came out at 12.6 µM in [7], 5.47 µM in experiment [8], 25.8 µM in experiment [9] and 5.94 µM in [10].

In the case of `COC(=O)/C=C\C(C#N)(C#N)N=Cc1ccsc1`, the TGI in [1] worked out at 1.62 µM; in experiment [2], 5.71 µM; in experiment [3], 27.6 µM; in experiment [4], 3.02 µM; in experiment [5], 3.28 µM; in experiment [6] it was 21.5 µM. The TGI in [7] worked out at 29.7 µM; in experiment [8], 20.9 µM; in experiment [9], 5.96 µM; in experiment [10], 3.72 µM.

On to `COc1ccc(C(C)NNC(=O)c2ccncc2)cc1F` (stereo not drawn), for which the TGI in experiment [1], in [2], in experiment [3], in experiment [4], in experiment [5] and in experiment [6] was above 100 µM throughout. For the same molecule, the TGI in [7], in experiment [8], in experiment [9] and in experiment [10] was above 100 µM in each case.

In the case of `O=C(NC/C=C/Br)NC1CCNc2ccccc21` (stereo not drawn), the TGI was above 100 µM in [1]; 56.8 µM in experiment [2]; above 100 µM in [3]; 81.9 µM in [4]; 58.7 µM in experiment [5]; above 100 µM in [6]. Also, the concentration for total growth inhibition (TGI) in [7], in experiment [8], in experiment [9] and in [10] was above 100 µM each time.

As for `CSC1NNC2(C(=O)N1)c1ccccc1-c1ccccc12` (stereo not drawn), the TGI in experiment [1], in experiment [2], in experiment [3], in experiment [4], in experiment [5] and in experiment [6] was above 10 µM each time. Further, the TGI in experiment [8], in [9] and in experiment [10] was above 10 µM in each case.

Take `C/C(=C\CNc1nc(Cl)nc2nc[nH]c12)CO`: the TGI in experiment [1], in [2], in experiment [3], in experiment [4], in [5] and in experiment [6] was above 100 µM each time. Also, the TGI in experiment [8], in experiment [9] and in experiment [10] was above 100 µM throughout.
